In patent publication US9458095B2, “Oligo-benzamide compounds and their use in treating cancers” (The Board of Regents of the University of Texas System, priority 2011, dated 2016):
Each block holds one compound with its values, some of them ahead of it.

Columns and labels:
ARv7 regulated genes = assay: Q-PCR of ARv7 regulated genes; assay type: cell-based; conditions: data not shown
Text: Finally, confirmation of the role of T6 in modulating ARv7 driven transcription was obtained by evaluation of the gene expression of ARv7 regulated genes.

[1] = test system: ARE activity in CWR22v1 cells (ARwt and ARv7); assay: ARE-luciferase reporter in CWR22v1 cells; assay type: cell-based; conditions: 10 μM casodex or MDV3100, 48 h, without androgen (EtOH)
Description: FIG. 4. Effect of T6 on basal level of ARE expression in CWR22v1 cells. CWR22v1 cells were transiently transfected with ARE-luciferase. Cells were maintained for 48 h without (EtOH) and in the presence of 100 nM of peptidomimetic or volume equivalent of vehicle (DMSO) control or 10 μM of casodex or MDV3100.

[2] = test system: IOSE immortalized normal ovarian cells; assay: Growth of normal ovarian cells; assay type: cell-based
Description: FIG. 11. Testing of oligo-benzamides on growth of normal ovarian cells. IOSE are immortalized normal ovarian cells.
(§1) Cell proliferation rates were measured by using MTT Cell Viability Assay in 96-well micro plates. Model cells were seeded in 96-well plates (2×10^3 cells/well) in DMEM or RPMI medium containing 10% serum. After an overnight incubation, cells were treated with varying concentrations of oligo-benzamides for 72 h and growth inhibition was determined by using traditional MTT assay (Sigma) following manufacturer's instructions.

CH157 = assay: Growth inhibition of meningioma cell line CH157; assay type: cell-based
Description: (§2) FIGS. 10A-B. Testing of oligo-benzamide (TK 11) for growth inhibitor of two meningioma brain cancer cell lines. (FIG. 10A) Results for cell line CH157. (FIG. 10B) Results for cell line IOMM-LEE.
as §1

U87 = assay: Growth inhibition of brain cancer cell line U87 (MTT); assay type: cell-based, Human; conditions: 72 h
Description: (§3) FIGS. 8A-B. Testing of oligo-benzamides for growth inhibitor of two brain cancer cell lines. (FIG. 8A) Results for cell line U87. (FIG. 8B) Results for cell line LN229. […] Human Breast cancer cells MCF7, ZR75, glioma cells U87, T98G, LN229, and the ovarian cancer cell line SKOV3 were obtained from the American Type Culture Collection (ATCC) and were maintained using ATCC recommended media. Cell proliferation rates were measured by using MTT Cell Viability Assay in 96-well micro plates. Model cells were seeded in 96-well plates (2×10^3 cells/well) in DMEM or RPMI medium containing 10% serum. After an overnight incubation, cells were treated with varying concentrations of oligo-benzamides for 72 h and growth inhibition was determined by using traditional MTT assay (Sigma) following manufacturer's instructions.

IOMM-LEE = assay: Growth inhibition of meningioma cell line IOMM-LEE; assay type: cell-based
Description: as §2, §1

[3] = molecular target: T1, PELP1 interaction with estrogen receptor (Homo sapiens, UniProt P03372); assay: PELP1-ER interaction, GST pull down assay; assay type: binding; conditions: TK11 500 nM, purified ER, GST-PELP1, E2
T1 construct: purchased
T1 sequence (P03372 1-595): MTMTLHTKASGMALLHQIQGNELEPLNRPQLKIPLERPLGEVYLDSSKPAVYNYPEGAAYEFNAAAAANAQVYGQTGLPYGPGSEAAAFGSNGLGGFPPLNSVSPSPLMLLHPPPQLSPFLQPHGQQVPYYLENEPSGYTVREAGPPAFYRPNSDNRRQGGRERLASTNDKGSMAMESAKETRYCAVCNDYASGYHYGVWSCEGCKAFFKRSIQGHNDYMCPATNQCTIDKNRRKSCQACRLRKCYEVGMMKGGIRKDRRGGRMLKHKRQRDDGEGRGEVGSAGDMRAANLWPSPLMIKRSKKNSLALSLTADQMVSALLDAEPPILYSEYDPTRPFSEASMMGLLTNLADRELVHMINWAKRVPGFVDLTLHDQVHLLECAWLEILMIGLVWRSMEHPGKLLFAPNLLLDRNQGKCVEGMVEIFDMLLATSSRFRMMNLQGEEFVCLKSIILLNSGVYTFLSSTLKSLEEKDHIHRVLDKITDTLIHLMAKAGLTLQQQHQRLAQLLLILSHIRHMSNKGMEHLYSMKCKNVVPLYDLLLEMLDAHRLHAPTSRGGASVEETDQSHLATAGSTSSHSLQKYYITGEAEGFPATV
Description: FIGS. 12A-C. Testing of oligo-benzamides for growth inhibition of estrogen driven proliferation. (FIG. 12A) Structure of peptidomimetics used in the assays. (FIG. 12B) Effect of tribenzamimetics on E2 driven proliferation using ZR75 model cells. (FIG. 12C) Effect of tribenzamides on PELP1-ER interaction. *, P<0.05.
Purified commercially available estrogen receptor (ER) was incubated with biotin-con or biotin-TK11 peptidomimetic in the presence of estrogen (E2). TK11 interaction with ER was determined using avidin immunoprecipitation (IP) followed by western blotting. For some experiments, MCF-7 cells were stimulated with estrogen (E2), nuclear lysates were prepared and incubated with biotin-con or biotin-TK11 peptidomimetic. TK11 interactions with endogenous ER were analyzed by avidin IP. For some experiments, purified ER, GST-PELP1 was incubated in the presence of E2 and ability of control or TK11 (500 nM) to compete PELP1 interaction with ER was determined GST pull down assay.

LN229 = assay: Growth inhibition of brain cancer cell line LN229 (MTT); assay type: cell-based, Human; conditions: 72 h
Description: as §3

[4] = test system: triple negative breast cancer cell line; assay: Growth inhibition of breast cell lines (MTT); assay type: cell-based; conditions: 72 h
Description: FIG. 6. Testing of oligo-benzamides for growth inhibition of breast cell lines.
as §1

[5] = test system: Tamoxifen therapy resistant MCF7-HER2 and MCF7-TAM cells; assay: Therapy resistance assay (MTT), hormonal therapy resistant cells; assay type: cell-based, Human; conditions: tamoxifen (10^-7M) containing media, P<0.05
Description: FIG. 13. Testing of oligo-benzamides for growth inhibition of hormonal therapy resistant cells.
Tamoxifen (Tam) therapy resistant MCF7-HER2 and MCF7-TAM cells were cultured in tamoxifen (10^-7M) containing media in the presence or absence of TK11 and proliferation was measured by MTT assay (Sigma) following manufacturer's instructions.

ovarian cancer cell line = assay: Growth inhibition of ovarian cell lines (MTT); assay type: cell-based; conditions: 72 h
Description: FIG. 7. Testing of oligo-benzamides for growth inhibition of ovarian cell lines.
Human Breast cancer cells MCF7, ZR75, glioma cells U87, T98G, LN229, and the ovarian cancer cell line SKOV3 were obtained from the American Type Culture Collection (ATCC) and were maintained using ATCC recommended media.
as §1

[6] = test system: prostate cancer cell line; assay: Growth inhibition of prostate cancer cell line; assay type: cell-based

SMILES: CNC(=O)c1ccc(N2C(=S)N(c3ccc(C#N)c(C(F)(F)F)c3)C(=O)C2(C)C)cc1F [MDV3100, reference compound]
expression of a panel of ARv7 regulated genes (Q-PCR) (ARv7 regulated genes): could not affect
basal ARE activity in CWR22v1 cells [1]: neither casodex nor MDV3100 could significantly affect

blocking PELP1 oncogene interactions with estrogen receptor [3]: very efficient in blocking
SMILES: CC(C)COc1cc(C(N)=O)ccc1NC(=O)c1ccc(NC(=O)c2ccc([N+](=O)[O-])c(OCCO)c2)c(OCC(C)C)c1 [TK11]
potency in inhibiting growth of normal ovarian cells (IOSE) [2]: weak potency
growth inhibition, meningioma cell line CH157 (specificity versus prostate cancer cell line) (CH157): higher specificity
growth inhibition, brain cancer cell line U87 (U87): high potency
growth inhibition, meningioma cell line IOMM-LEE (specificity versus prostate cancer cell line) (IOMM-LEE): higher specificity
growth inhibition, brain cancer cell line LN229 (LN229): high potency
growth inhibition, triple negative breast cancer cell line [4]: high potencies
growth of hormonal therapy resistant cells [5]: significantly inhibited
growth inhibition, ovarian cancer cell line (ovarian cancer cell line): high potency
potency in inhibiting prostate cancer cell line [6]: weak potency

SMILES: CC(O)(CS(=O)(=O)c1ccc(F)cc1)C(=O)Nc1ccc(C#N)c(C(F)(F)F)c1 (centres unmarked) [casodex, reference compound]
expression of a panel of ARv7 regulated genes (Q-PCR) (ARv7 regulated genes): could not affect
basal ARE activity in CWR22v1 cells [1]: neither casodex nor MDV3100 could significantly affect
